In the supplement of paper PMC10307832:

How the values were obtained:
Assay in all cases: relative viability (nuclei count vs DMSO), 5 days (fraction); higher = more cells survive
Etoposide + Palbociclib = compound: COc1cc([C@@H]2c3cc4c(cc3[C@@H](O[C@@H]3O[C@@H]5CO[C@@H](C)O[C@H]5[C@H](O)[C@H]3O)[C@H]3COC(=O)[C@H]23)OCO4)cc(OC)c1O [Etoposide] + CC(=O)c1c(C)c2cnc(Nc3ccc(N4CCNCC4)cn3)nc2n(C2CCCC2)c1=O [Palbociclib] (partner 0.5 µM)
Summary of the method: (§1)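 After 5 days of treatment, lung cancer cells in 1536-well plates were fixed and stained in a single step (final 0.05% Triton X-100, 1% formaldehyde, 1 ug/ml Hoechst) and their nuclei counted on 4× images. Treatment had been applied by pin tool the day after seeding as one drug alone or as a fixed anchor-drug dose with five library-drug doses (not always all listed) in √10 steps. Relative viability is the nuclei count of treated wells divided by that of vehicle wells, and values are medians of duplicate plates.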

Etoposide + Decitabine = compound: COc1cc([C@@H]2c3cc4c(cc3[C@@H](O[C@@H]3O[C@@H]5CO[C@@H](C)O[C@H]5[C@H](O)[C@H]3O)[C@H]3COC(=O)[C@H]23)OCO4)cc(OC)c1O [Etoposide] + Nc1ncn([C@H]2C[C@H](O)[C@@H](CO)O2)c(=O)n1 [Decitabine] (partner 2 µM)
Summary of the method: as §1

Bleomycin + Crizotinib = compound: CC1=C(N=C(N=C1N)[C@H](CC(=O)N)NC[C@@H](C(=O)N)N)C(=O)N[C@@H]([C@H](C2=CN=CN2)OC3C(C(C(C(O3)CO)O)O)OC4C(C(C(C(O4)CO)O)OC(=O)N)O)C(=O)N[C@H](C)[C@H]([C@H](C)C(=O)N[C@@H]([C@@H](C)O)C(=O)NCCC5=NC(=CS5)C6=NC(=CS6)C(=O)NCCC[S+](C)C)O [Bleomycin] + C[C@@H](Oc1cc(-c2cnn(C3CCNCC3)c2)cnc1N)c1c(Cl)ccc(F)c1Cl [Crizotinib] (partner 1 µM); details: main component drawn
Summary of the method: as §1

Bleomycin + Linsitinib = compound: CC1=C(N=C(N=C1N)[C@H](CC(=O)N)NC[C@@H](C(=O)N)N)C(=O)N[C@@H]([C@H](C2=CN=CN2)OC3C(C(C(C(O3)CO)O)O)OC4C(C(C(C(O4)CO)O)OC(=O)N)O)C(=O)N[C@H](C)[C@H]([C@H](C)C(=O)N[C@@H]([C@@H](C)O)C(=O)NCCC5=NC(=CS5)C6=NC(=CS6)C(=O)NCCC[S+](C)C)O [Bleomycin] + C[C@]1(O)C[C@@H](c2nc(-c3ccc4ccc(-c5ccccc5)nc4c3)c3c(N)nccn32)C1 [Linsitinib] (partner 1 µM); details: main component drawn
Summary of the method: as §1

Cell Line | relative viability (Etoposide + Palbociclib; first compound 0.03162 µM) | relative viability (Etoposide + Palbociclib; first compound 0.1 µM) | relative viability (Etoposide + Palbociclib; first compound 0.3162 µM) | relative viability (Etoposide + Palbociclib; first compound 1 µM) | relative viability (Etoposide + Decitabine; first compound 0.03162 µM) | relative viability (Etoposide + Decitabine; first compound 0.1 µM) | relative viability (Etoposide + Decitabine; first compound 0.3162 µM) | relative viability (Etoposide + Decitabine; first compound 1 µM) | relative viability (Bleomycin + Crizotinib; first compound 0.01 µM) | relative viability (Bleomycin + Crizotinib; first compound 0.03162 µM) | relative viability (Bleomycin + Crizotinib; first compound 0.1 µM) | relative viability (Bleomycin + Crizotinib; first compound 0.3162 µM) | relative viability (Bleomycin + Crizotinib; first compound 1 µM) | relative viability (Bleomycin + Linsitinib; first compound 0.01 µM) | relative viability (Bleomycin + Linsitinib; first compound 0.03162 µM) | relative viability (Bleomycin + Linsitinib; first compound 0.1 µM) | relative viability (Bleomycin + Linsitinib; first compound 0.3162 µM) | relative viability (Bleomycin + Linsitinib; first compound 1 µM) | relative viability (Etoposide + Palbociclib; first compound 0.01 µM) | relative viability (Etoposide + Decitabine; first compound 0.01 µM)
NCI-H1993 | 0.773 | 0.481 | 0.659 | 0.482 | 0.609 | 0.482 | 0.599 | 0.461 | 0.629 | 0.712 | 0.693 | 0.678 | 0.527 | 0.736 | 0.745 | 0.693 | 0.59 | 0.518 |  | 
NCI-H2009 | 0.213 | 0.145 | 0.25 | 0.148 | 0.425 | 0.316 | 0.354 | 0.234 | 0.976 | 1.07 | 0.991 | 0.603 | 0.459 | 1.12 | 1.22 | 1.17 | 0.864 | 0.58 | 0.203 | 0.396
NCI-H2023 | 0.201 | 0.351 | 0.201 | 0.173 | 0.247 | 0.204 | 0.146 | 0.109 | 0.473 | 0.447 | 0.346 | 0.131 | 0.104 | 0.543 | 0.465 | 0.321 | 0.143 | 0.106 | 0.312 | 0.246
NCI-H2085 | 0.477 | 0.513 | 0.409 | 0.323 | 0.573 | 0.484 | 0.373 | 0.374 | 0.608 | 0.723 | 0.671 | 0.372 | 0.404 | 0.678 | 0.823 | 0.632 | 0.346 | 0.363 | 0.461 | 0.609
NCI-H2087 | 0.19 | 0.214 | 0.215 | 0.193 | 0.3 | 0.276 | 0.214 | 0.102 | 0.617 | 0.771 | 0.735 | 0.303 | 0.274 | 0.717 | 0.977 | 0.895 | 0.374 | 0.255 | 0.211 | 0.287
NCI-H2126 | 0.39 | 0.316 | 0.368 | 0.34 | 0.636 | 0.486 | 0.476 | 0.323 | 0.932 | 1.1 | 0.982 | 0.948 | 0.801 | 0.641 | 0.756 | 0.687 | 0.645 | 0.546 | 0.32 | 0.584
NCI-H2347 | 0.397 | 0.375 | 0.381 | 0.346 | 0.628 | 0.573 | 0.443 | 0.411 | 0.707 | 0.677 | 0.744 | 0.362 | 0.515 | 0.848 | 0.846 | 0.831 | 0.484 | 0.464 | 0.314 | 0.6
NCI-H2405 | 0.549 | 0.355 | 0.477 | 0.328 | 0.808 | 0.563 | 0.519 | 0.328 | 0.695 | 0.8 | 0.713 | 0.45 | 0.372 | 0.745 | 0.834 | 0.69 | 0.373 | 0.341 | 0.536 | 0.732
NCI-H3122 | 0.219 | 0.164 | 0.182 | 0.165 | 0.536 | 0.384 | 0.385 | 0.249 | 0.253 | 0.271 | 0.305 | 0.214 | 0.253 | 1.05 | 1.03 | 1.01 | 0.744 | 0.457 | 0.218 | 0.465
PC-3 [JPC-3] | 0.493 | 0.545 | 0.56 | 0.526 | 0.921 | 0.836 | 0.737 | 0.692 | 0.811 | 1 | 0.872 | 0.689 | 0.485 | 0.865 | 0.944 | 0.847 | 0.723 | 0.53 | 0.481 | 0.813
PC-14 | 0.594 | 0.652 | 0.289 | 0.125 | 0.248 | 0.258 | 0.182 | 0.103 | 0.578 | 0.516 | 0.259 | 0.105 | 0.0849 | 0.578 | 0.51 | 0.309 | 0.118 | 0.119 | 0.447 | 0.242
RERF-LC-KJ | 1.19 | 0.918 | 0.912 | 0.606 | 0.638 | 0.54 | 0.579 | 0.335 | 0.541 | 0.513 | 0.421 | 0.23 | 0.197 | 0.617 | 0.502 | 0.502 | 0.233 | 0.22 | 1.04 | 0.643
SK-LU-1 | 0.397 | 0.319 | 0.247 | 0.22 | 0.604 | 0.513 | 0.306 | 0.252 | 0.816 | 1.11 | 0.797 | 0.446 | 0.428 | 0.821 | 0.921 | 0.929 | 0.471 | 0.39 | 0.381 | 0.561
SK-MES-1 | 0.31 | 0.315 | 0.262 | 0.239 | 0.481 | 0.35 | 0.238 | 0.199 | 0.83 | 0.86 | 0.753 | 0.309 | 0.213 | 0.923 | 0.974 | 0.819 | 0.287 | 0.216 | 0.338 | 0.344
SW 1573 | 0.349 | 0.288 | 0.16 | 0.109 | 0.5 | 0.243 | 0.159 | 0.0836 | 0.713 | 0.604 | 0.711 | 0.402 | 0.227 | 0.705 | 0.567 | 0.417 | 0.311 | 0.176 | 0.363 | 0.434
